Consider nine molecules from ChEMBL document CHEMBL3232977, “Medicinal chemistry optimization of antiplasmodial imidazopyridazine hits from high throughput screening of a SoftFocus kinase library: part 1” (J Med Chem, 2014).

Series [1] deals with Plasmodium falciparum.
Series [2] in a line: physchem. As to conditions: 0.01 M HCl, pH 2.
Series [3] relates to Plasmodium berghei. In words: Antimalarial activity against GFP-transfected Plasmodium berghei ANKA infected in mouse assessed as mean survival days at 40 mg/kg, po qd for 4 days. It counts as functional.
Series [4] concerns Plasmodium falciparum. In words: microbe, parasite or virus in culture. The conditions noted are these: NF54.
In series [5] the test system is Plasmodium falciparum. In words: microbe, parasite or virus in culture. As to conditions: K1.
The test system of series [6] is Plasmodium berghei. In words: Antimalarial activity against GFP-transfected Plasmodium berghei ANKA infected in mouse assessed as reduction of parasitemia at 40 mg/kg, po qd for 4 days. The class given is functional.
A short description of series [7]: Apparent Cmax in GFP-transfected Plasmodium berghei ANKA infected mouse at 40 mg/kg, po qd for 4 days. It counts as ADME, organism-based. The arrangement: dose 40 mg/kg, route oral. The conditions noted are these: in vivo.
Series [8] can be described thus: physchem. As to conditions: buffer, pH 2.
Series [9] is described as follows: Apparent half life in Sprague-Dawley rat at 3.6 mg/ml, iv. It counts as ADME, organism-based. The conditions noted are these: in vivo, read-out: t1/2(app) (converted).
The nature of series [10]: AUC (0 to infinity) in Sprague-Dawley rat at 3.6 mg/ml, po. It counts as ADME, organism-based. Also on record: dose 3.6 mg/ml, time infinity, route oral. The conditions noted are these: plasma.
Series [11] can be described thus: Apparent AUC in GFP-transfected Plasmodium berghei ANKA infected mouse at 40 mg/kg, po qd for 4 days. The class given is ADME, organism-based. Also on record: dose 40 mg/kg, route oral. As to conditions: in vivo.
A short description of series [12]: Oral bioavailability in Sprague-Dawley rat at 3.6 mg/ml. The conditions noted are these: in vivo. It counts as ADME, organism-based.
Series [13] deals with Plasma. In words: Average plasma concentration in GFP-transfected Plasmodium berghei ANKA infected mouse at 40 mg/kg, po qd for 4 days measured after 24 hrs. The class given is ADME, organism-based. Also on record: dose 40 mg/kg, route oral. The conditions noted are these: in vivo.
Series [14] is described as follows: Plasma total clearance in Sprague-Dawley rat at 3.6 mg/ml, iv. The class given is ADME, organism-based.
A short description of series [15]: Cmax in Sprague-Dawley rat at 3.6 mg/ml, po. It counts as ADME, organism-based. Also on record: dose 3.6 mg/ml, route oral. The conditions noted are these: in vivo.
A short description of series [16]: Apparent half life in Sprague-Dawley rat at 3.6 mg/ml, po. The class given is ADME, organism-based. As to conditions: in vivo, read-out: t1/2(app) (converted).
Series [17] concerns Plasmodium falciparum. In words: Antimalarial activity against Plasmodium falciparum infected in po dosed SCID mouse assessed as reduction of parasitemia administered qd for 4 days. The class given is functional. As to conditions: 96 h.
The nature of series [18]: Volume of distribution at steady state in Sprague-Dawley rat at 3.6 mg/ml, iv. The class given is ADME, organism-based. As to conditions: in vivo, read-out: Vdss.
In series [19] the test system is Plasmodium berghei. In words: Antimalarial activity against GFP-transfected Plasmodium berghei ANKA infected in po dosed mouse assessed as reduction of parasitemia administered qd for 4 days. The class given is functional. As to conditions: 96 h.
Series [20] in a line: AUC (0 to infinity) in Sprague-Dawley rat at 3.6 mg/ml, iv. The class given is ADME, organism-based. Also on record: dose 3.6 mg/ml, route intravenous, time infinity. The conditions noted are these: plasma.
Series [21] in a line: Tmax in Sprague-Dawley rat at 3.6 mg/ml, po. It counts as ADME, organism-based. The conditions noted are these: in vivo.
The nature of series [22]: Solubility of the compound in 0.01M HCl at pH 2.5. The class given is physicochemical.
In series [23] the test system is Plasmodium berghei. The conditions noted are these: dose 30 mg/kg; route oral.
The test system of series [24] is Plasmodium berghei. As to conditions: dose 30 mg/kg; route oral. This is another data set of the same source.

Structures are written as SMILES. Converted amounts (≈) assume the structure as drawn.

A word on the IC50: it is the point on the concentration scale where inhibition reaches its midpoint. One may read the solubility as the concentration that dissolves in the medium under given conditions. In the case of `CC(C)(C)c1cccc(-c2ccc3ncc(-c4ccc(S(C)(=O)=O)cc4)n3n2)c1`, the IC50 entry in series [1] is reported as “ND(Insoluble)”. This molecule came in with a solubility in series [2] of over 100 µg/mL.
Broadly, the Cmax is the highest concentration seen after dosing. As for `CS(=O)(=O)c1ccc(-c2cnc3ccc(-c4cccc(S(N)(=O)=O)c4)nn23)cc1`, the MSD in [3] was 4 days; in [6], under 40 days. Also, the IC50 in [4] and in series [5] was 4.4 nM in each case. In [2], this molecule yielded a solubility of over 100 µg/mL. The highest concentration (Cmax) in [7] is 20 nM.
As for `CN1CCN(C(=O)c2cccc(-c3ccc4ncc(-c5ccc(S(C)(=O)=O)cc5)n4n3)c2)CC1`, the IC50 in series [4] is 6.1 nM; in series [5] it was 5.5 nM. In addition, the results for the solubility in [8] and in [2] were 50 µg/mL (≈ 105 µM) and over 100 µg/mL, respectively.
The term AUC(0-inf) denotes the area under the concentration-time curve extrapolated to infinity. Read a low AUC(0-inf) as low exposure. The term AUC denotes concentration integrated over time. For orientation: bioavailability means the share of a dose that reaches the circulation, judged against a reference dose that is usually intravenous. A lower bioavailability goes with poor availability. As usually defined, the clearance is the rate of elimination divided by the concentration. For orientation: ED50 means the midpoint of the dose-response relation. By Tmax is commonly meant the time from dosing to the highest level. In the case of `CS(=O)(=O)c1ccc(-c2cnc3ccc(-c4cccc(S(C)(=O)=O)c4)nn23)cc1`, the MSD stood at 7 days in [3] and 98 days in [6]. Also, the half-life in series [9] was 7.15 h; in series [16], 7.08 h. Moreover, the 50% inhibitory concentration (IC50) turned out to be 7.3 nM in series [4] and 6.3 nM in series [5]. The AUC(0-inf) in series [10] was 18.9 µM·h; in [20], 24.3 µM·h. For the same molecule, the AUC at 96 h in series [11] was 27.8 µM·h. The same molecule displayed a bioavailability in [12] of 77.7%. Also, the Cave in [13] turned out to be 1200 nM. This molecule registered a clearance in series [14] of 5.77 mL/min/kg. For the same molecule, the results for the Cmax in series [15] and in [7] were 1900 nM and 2200 nM, respectively. Also, the ED90 was 1.5 mg/kg in [17] and 15 mg/kg in series [19]. For the same molecule, the Vd in series [18] came out at 3.01 L/kg. Besides, in series [19], the ED50 was 1.4 mg/kg. For the same molecule, in [2], the solubility was over 100 µg/mL. Moreover, the time of peak concentration (Tmax) in [21] turned out to be 3 h.
On to `CS(=O)(=O)c1ccc(-c2cnc3ccc(-c4cccc(C(=O)N5CCNCC5)c4)nn23)cc1`, for which the MSD in series [3] is 4 days; in [6], under 40 days. The IC50 in series [4] was 15 nM; in series [5], 11 nM. The solubility in series [2] and in series [22] was over 100 µg/mL each time. Moreover, in series [7], the Cmax is 10 nM.
Take `Cc1ccc(-c2ccc3ncc(-c4ccc(S(C)(=O)=O)cc4)n3n2)cc1C(F)(F)F`: the MSD in series [3] is 7 days; in [6], 79 days. The figures for the half-inhibitory concentration (IC50) in [4] and in [5] were 32 nM and 26 nM, respectively. Also, the solubility in [2] is over 100 µg/mL.
Regarding `CS(=O)(=O)c1ccc(-c2cnc3ccc(-c4cccc(C(=O)NCCO)c4)nn23)cc1`, the IC50 in [4] came out at 99 nM; in series [5], 78 nM. Further, the solubility was 50 µg/mL (≈ 115 µM) in series [8] and over 100 µg/mL in series [2].
For `O[C@@H](c1cc(C(F)(F)F)nc2c(C(F)(F)F)cccc12)[C@H]1CCCCN1` (relative stereo) [(S,R)-MEFLOQUINE], the figures for the IC50 in series [4] and in series [5] were 12 nM and 8.4 nM, respectively. Moreover, the MSD in [23] amounted to 99.9 days; in [24], 29 days.
Consider `C[C@H]1[C@H](OC(=O)CCC(=O)O)O[C@@H]2O[C@@]3(C)CC[C@H]4[C@H](C)CC[C@@H]1[C@@]24OO3` [ARTESUNATE], for which the IC50 was determined as 4 nM in [4] and 3 nM in series [5]. Further, the MSD in series [23] amounted to 99 days; in [24], 10 days.
